ChEMBL document CHEMBL1201862, “PubChem BioAssay data set” (2004)
Activity calls are given as the source filed them.

What was measured:
Insulin-degrading enzyme [1] = molecular target: T1, Insulin-degrading enzyme (Homo sapiens, UniProt P14735); test: cellular IDE activation of Abeta substrate cleavage – fluorescence polarization, HEK cells, dose response (AID 588439); assay type: functional, cell-based
T1 sequence (P14735 whole entry): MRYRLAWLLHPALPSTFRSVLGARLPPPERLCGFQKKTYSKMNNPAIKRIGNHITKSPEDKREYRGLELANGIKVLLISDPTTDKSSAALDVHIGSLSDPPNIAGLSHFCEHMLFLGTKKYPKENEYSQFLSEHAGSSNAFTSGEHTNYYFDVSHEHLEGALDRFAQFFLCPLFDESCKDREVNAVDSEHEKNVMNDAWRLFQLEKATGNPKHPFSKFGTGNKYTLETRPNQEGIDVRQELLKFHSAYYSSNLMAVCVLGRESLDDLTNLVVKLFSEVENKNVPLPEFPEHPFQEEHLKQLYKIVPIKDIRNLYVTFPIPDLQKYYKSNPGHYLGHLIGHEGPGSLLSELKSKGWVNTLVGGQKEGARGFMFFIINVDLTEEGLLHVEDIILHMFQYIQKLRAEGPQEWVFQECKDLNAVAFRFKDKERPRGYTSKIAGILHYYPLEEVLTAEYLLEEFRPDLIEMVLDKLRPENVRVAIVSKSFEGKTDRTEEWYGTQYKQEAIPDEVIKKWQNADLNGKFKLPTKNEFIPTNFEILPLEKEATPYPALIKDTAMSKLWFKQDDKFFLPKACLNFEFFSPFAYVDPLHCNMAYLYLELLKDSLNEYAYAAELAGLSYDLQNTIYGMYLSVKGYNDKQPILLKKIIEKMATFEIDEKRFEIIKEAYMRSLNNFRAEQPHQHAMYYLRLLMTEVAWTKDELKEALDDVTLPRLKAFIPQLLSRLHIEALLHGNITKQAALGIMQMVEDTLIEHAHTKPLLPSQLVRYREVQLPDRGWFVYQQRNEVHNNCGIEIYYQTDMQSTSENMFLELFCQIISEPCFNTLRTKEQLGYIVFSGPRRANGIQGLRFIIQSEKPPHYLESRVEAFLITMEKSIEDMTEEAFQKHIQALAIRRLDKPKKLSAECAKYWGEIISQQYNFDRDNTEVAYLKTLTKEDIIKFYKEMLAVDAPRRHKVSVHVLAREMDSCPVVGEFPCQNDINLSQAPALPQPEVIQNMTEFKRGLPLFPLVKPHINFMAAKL

HEK293 [2] = test: membrane integrity loss in HEK cells – cell-based, fluorescence, cytotoxicity control for IDE activator project, dose response (AID 588440); assay type: functional; details: Homo sapiens;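 further: cytotoxicity by LDH release measuring loss of membrane integrity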
Insulin-degrading enzyme [3] = molecular target: T1, Insulin-degrading enzyme; test: recombinant IDE activation, cell-free – biochemical, fluorescence polarization, counter-screen for IDE activator project, dose response (AID 588681)
[4] = viability of uninfected HEp-2 cells – cell-based, HTS, cytotoxicity control for RSV inhibitor project, dose response (AID 2410); assay type: functional; details: human respiratory syncytial virus
HEK293 [5] = test: optical interference in Abeta FP readout, dose response, artefact control for IDE activator project, biochemical, fluorescence polarization (AID 588442); assay type: functional, cell-based; details: Homo sapiens
Escherichia coli = test: microbe, parasite or virus in culture
[6] = molecular target: Peroxisome proliferator-activated receptor gamma/Nuclear receptor coactivator 2 (Homo sapiens, UniProt P37231); test: (§1) TR-FRET dose response biochemical High Throughput Screening assay for agonists of the steroid receptor coactivator 2 (SRC-2) recruitment by the peroxisome proliferator-activated receptor gamma (PPAR gamma): non-selective agonists. [Related pubchem assays: 1297, 1032 ]; assay type: functional
[7] = HEK-293T cell viability reduction – luminescence, B-cell screen hits, cytotoxicity control for BCR NF-kB inhibitor project, dose response (AID 489021); assay type: functional, cell-based;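 further: HEK-293T cells carrying an NF-kB luciferase reporter; cells exposed to compound for about 14 hours before viability readout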
[8] = molecular target: Peroxisome proliferator-activated receptor gamma/Nuclear receptor coactivator 3 (Homo sapiens, UniProt P37231); test: as §1, with “3 (SRC-3)” for “2 (SRC-2)”, “1301 (Confirmation screen.), 1048 (Primary screen.)]” for “1297, 1032 ]”; assay type: functional
Chain of Peroxisome proliferator-activated receptor gamma/Nuclear receptor coactivator 3 (P37231 whole entry): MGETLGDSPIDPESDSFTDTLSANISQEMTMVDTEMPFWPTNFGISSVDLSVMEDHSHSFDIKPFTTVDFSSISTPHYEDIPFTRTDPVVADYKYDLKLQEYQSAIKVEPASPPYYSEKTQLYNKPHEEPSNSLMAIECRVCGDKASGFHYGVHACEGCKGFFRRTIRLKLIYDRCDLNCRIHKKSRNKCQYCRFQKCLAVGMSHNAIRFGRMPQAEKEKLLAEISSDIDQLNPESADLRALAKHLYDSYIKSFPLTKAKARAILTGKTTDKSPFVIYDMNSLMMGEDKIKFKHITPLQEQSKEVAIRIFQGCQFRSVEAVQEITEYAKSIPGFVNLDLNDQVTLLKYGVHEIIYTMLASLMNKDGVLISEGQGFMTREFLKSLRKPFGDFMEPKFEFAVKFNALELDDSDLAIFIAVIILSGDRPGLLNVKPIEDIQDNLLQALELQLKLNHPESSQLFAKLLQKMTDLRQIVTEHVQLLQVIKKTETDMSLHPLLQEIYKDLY
Chain of Peroxisome proliferator-activated receptor gamma/Nuclear receptor coactivator 3 (Q9Y6Q9 whole entry, further chain): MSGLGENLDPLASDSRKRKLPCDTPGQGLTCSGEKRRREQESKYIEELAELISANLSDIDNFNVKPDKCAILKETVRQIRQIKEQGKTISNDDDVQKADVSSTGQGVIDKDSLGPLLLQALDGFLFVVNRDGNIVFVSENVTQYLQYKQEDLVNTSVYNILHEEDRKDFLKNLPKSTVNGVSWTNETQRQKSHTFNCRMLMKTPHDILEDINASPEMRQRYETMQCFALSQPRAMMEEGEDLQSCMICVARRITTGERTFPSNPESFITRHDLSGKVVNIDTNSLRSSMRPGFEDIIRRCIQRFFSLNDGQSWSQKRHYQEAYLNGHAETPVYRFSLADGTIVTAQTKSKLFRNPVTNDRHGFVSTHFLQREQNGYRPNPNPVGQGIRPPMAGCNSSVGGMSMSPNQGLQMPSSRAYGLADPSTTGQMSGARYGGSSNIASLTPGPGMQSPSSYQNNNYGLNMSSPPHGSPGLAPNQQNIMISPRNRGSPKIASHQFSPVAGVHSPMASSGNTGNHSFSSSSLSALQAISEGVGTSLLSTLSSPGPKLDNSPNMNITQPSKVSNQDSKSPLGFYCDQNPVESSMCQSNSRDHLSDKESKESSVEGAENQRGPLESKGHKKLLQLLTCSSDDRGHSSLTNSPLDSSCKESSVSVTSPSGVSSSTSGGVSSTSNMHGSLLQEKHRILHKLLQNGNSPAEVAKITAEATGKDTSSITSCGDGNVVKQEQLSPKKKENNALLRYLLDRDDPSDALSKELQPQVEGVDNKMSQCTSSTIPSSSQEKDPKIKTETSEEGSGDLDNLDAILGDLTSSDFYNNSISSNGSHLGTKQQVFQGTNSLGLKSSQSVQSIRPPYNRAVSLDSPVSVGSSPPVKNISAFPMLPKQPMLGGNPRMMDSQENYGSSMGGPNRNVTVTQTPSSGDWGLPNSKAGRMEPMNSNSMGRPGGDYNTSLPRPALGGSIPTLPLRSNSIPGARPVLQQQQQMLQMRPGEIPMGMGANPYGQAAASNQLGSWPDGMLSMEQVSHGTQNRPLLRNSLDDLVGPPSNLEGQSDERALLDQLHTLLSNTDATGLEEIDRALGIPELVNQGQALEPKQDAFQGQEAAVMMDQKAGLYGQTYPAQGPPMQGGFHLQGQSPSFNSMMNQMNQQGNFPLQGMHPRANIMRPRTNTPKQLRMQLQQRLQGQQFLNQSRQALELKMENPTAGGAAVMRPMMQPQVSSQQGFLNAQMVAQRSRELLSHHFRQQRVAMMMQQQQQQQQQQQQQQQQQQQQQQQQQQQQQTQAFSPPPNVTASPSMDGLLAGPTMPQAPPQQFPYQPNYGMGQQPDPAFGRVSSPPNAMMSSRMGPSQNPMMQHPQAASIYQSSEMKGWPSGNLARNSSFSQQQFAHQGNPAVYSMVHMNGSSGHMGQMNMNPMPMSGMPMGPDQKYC

[9] = molecular target: Peroxisome proliferator-activated receptor gamma/Nuclear receptor coactivator 1 (Homo sapiens, UniProt P37231); test: as §1, with “1 (SRC-1)” for “2 (SRC-2)”, “assays (depositor defined):AID1300, AID1808, AID504735, AID631]” for “assays: 1297, 1032 ]”; assay type: protein assay
Chain of Peroxisome proliferator-activated receptor gamma/Nuclear receptor coactivator 1 (P37231 whole entry): as the sequence (P37231 whole entry) above
Chain of Peroxisome proliferator-activated receptor gamma/Nuclear receptor coactivator 1 (Q15788 whole entry, further chain): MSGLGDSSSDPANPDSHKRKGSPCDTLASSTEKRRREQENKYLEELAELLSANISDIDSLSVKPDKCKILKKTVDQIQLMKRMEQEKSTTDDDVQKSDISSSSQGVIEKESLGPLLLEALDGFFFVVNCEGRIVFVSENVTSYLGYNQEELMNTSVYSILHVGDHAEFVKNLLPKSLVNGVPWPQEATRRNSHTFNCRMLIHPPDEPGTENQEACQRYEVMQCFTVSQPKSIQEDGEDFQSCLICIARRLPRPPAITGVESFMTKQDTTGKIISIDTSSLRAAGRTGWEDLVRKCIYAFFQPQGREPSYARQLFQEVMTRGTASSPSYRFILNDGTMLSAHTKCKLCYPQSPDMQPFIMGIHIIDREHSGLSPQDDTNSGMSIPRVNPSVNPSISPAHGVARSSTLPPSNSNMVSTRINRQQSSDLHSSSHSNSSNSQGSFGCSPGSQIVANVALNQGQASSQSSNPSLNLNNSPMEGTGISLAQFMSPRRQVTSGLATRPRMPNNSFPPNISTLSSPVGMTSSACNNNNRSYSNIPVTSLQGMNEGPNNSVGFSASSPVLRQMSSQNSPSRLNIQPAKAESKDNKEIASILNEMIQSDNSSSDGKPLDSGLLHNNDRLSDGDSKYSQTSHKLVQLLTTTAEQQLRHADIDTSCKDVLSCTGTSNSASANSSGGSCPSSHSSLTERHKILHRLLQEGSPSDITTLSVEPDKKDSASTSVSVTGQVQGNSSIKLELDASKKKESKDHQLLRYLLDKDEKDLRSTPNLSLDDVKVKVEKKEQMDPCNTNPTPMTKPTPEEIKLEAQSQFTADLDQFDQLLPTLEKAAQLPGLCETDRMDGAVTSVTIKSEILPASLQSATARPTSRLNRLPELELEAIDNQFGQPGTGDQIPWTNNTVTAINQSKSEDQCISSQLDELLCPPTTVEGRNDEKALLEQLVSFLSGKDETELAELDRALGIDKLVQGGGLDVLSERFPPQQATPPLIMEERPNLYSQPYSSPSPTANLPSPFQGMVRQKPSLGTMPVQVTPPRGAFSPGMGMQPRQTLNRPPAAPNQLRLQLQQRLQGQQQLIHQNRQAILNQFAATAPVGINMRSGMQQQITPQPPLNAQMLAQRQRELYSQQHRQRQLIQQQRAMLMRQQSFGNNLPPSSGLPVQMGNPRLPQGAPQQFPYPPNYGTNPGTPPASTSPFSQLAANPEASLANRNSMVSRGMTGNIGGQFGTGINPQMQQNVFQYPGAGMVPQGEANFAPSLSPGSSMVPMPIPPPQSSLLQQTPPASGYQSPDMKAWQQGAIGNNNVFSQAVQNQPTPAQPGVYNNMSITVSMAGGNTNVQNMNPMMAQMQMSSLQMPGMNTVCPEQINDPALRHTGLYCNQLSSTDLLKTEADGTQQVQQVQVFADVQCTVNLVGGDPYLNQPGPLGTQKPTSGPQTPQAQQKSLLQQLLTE

[10] = loss of viability in HepG2 cells – cell-based, CellTiter-Glo, cherry-picked, cytotoxicity control for Shn3 inhibitor project, dose response (AID 624134); assay type: functional
HEK293 [11] = test: NOD2 signaling inhibitors in MDP-stimulated cells, cell-based, uHTS, luminescence (AID 2001); assay type: functional; details: Homo sapiens
[12] = molecular target: T2, Calpain-2 catalytic subunit (Sus scrofa, UniProt P43367); test: m-calpain protease blockers, concentration series – biochemical, fluorogenic peptide substrate, dose response (AID 1420); assay type: functional
T2 sequence (P43367 whole entry): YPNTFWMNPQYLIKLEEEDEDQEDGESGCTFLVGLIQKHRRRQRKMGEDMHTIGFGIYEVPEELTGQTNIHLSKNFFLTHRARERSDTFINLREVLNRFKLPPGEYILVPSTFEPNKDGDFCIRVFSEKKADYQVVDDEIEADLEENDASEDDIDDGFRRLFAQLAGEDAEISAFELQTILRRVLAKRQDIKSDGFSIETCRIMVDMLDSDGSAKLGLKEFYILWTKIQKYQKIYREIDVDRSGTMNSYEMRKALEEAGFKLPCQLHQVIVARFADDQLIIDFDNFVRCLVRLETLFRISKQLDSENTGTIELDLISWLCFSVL

[13] = reduction of Shn3 3'UTR-driven luciferase in osteoblasts – cell-based, Clone20 osteoblasts, firefly luciferase, cherry-picked, dose response (AID 624132); assay type: functional;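 further: firefly luciferase luminescence from reporter carrying the Shn3 3'UTR in osteoblasts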
[14] = non-specific 3'UTR reporter inhibition in Clone20-Shn3RL – cell-based, Renilla luciferase, cherry-picked, counter-screen for Shn3 inhibitor project, dose response (AID 624133); assay type: functional
HEK293 [15] = test: inhibition of NOD1-driven NF-kB reporter – cell-based, luminescence, uHTS, primary screen (AID 1578); assay type: functional; details: Homo sapiens
HEK293 [16] = test: cells; assay type: functional, cell-based; details: Homo sapiens
HEK293 [17] = test: cells; assay type: functional, cell-based; details: Homo sapiens; remark: listed apart in the source
Cytochrome P450 3A4 = Cytochrome P450 3A4 (Homo sapiens, UniProt P08684);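 further: CYP3A4 tested as one member of a cytochrome P450 panel screen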
Chain of Cytochrome P450 3A4 (P08684 whole entry): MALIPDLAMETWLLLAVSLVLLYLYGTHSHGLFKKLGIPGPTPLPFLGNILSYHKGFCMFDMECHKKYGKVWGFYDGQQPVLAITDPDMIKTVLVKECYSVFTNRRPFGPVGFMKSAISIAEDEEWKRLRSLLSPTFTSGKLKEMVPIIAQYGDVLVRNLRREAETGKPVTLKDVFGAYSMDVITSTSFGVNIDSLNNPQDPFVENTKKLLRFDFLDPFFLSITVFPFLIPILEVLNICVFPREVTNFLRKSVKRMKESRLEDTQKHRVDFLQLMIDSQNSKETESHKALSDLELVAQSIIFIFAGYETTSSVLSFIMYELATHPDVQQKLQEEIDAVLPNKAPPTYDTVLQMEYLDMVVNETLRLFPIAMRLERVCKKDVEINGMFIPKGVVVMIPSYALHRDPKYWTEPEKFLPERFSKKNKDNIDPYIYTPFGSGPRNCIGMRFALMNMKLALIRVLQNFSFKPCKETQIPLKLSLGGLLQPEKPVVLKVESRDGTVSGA

Cytochrome P450 2C19 = Cytochrome P450 2C19 (Homo sapiens, UniProt P33261); test: Cytochrome panel assay with activity outcomes. Panel member name: p450-cyp2c19 Compounds with AC50 equal or less than 10 uM are considered active; assay type: functional; details: read-out: AC50
Chain of Cytochrome P450 2C19 (P33261 whole entry): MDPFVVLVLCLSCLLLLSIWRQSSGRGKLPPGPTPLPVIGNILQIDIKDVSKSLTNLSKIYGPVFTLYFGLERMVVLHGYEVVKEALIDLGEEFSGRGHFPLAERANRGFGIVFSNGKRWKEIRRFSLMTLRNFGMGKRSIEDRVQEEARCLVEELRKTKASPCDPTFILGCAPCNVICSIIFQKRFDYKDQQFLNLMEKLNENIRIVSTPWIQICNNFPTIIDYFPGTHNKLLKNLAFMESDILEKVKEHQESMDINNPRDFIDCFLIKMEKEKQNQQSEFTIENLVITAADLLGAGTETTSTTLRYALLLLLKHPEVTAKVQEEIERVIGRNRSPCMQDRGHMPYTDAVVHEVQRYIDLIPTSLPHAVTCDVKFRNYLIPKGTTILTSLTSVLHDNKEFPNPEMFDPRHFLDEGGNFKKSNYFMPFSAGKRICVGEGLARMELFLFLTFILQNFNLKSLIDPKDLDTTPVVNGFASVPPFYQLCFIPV

For `Nc1c(C(=O)CSc2nc3ccccc3o2)c(=O)[nH]c(=O)n1C1CC1`, the EC50 (Insulin-degrading enzyme [1]) was > 54.7 µM (inactive), the IC50 (HEK293 [2]) was > 89.2 µM (inactive) and the EC50 (Insulin-degrading enzyme [3]) was > 54.7 µM (inactive). The CC50 [4] was 26.3 µM (active) and the EC50 (HEK293 [5]) was > 54.7 µM (inactive).

With `O=C(CN(Cc1ccco1)C(=O)c1ccccc1F)Nc1ccccc1C(F)(F)F` the AC50 (Escherichia coli) was 103 µM (active).

In the case of `CCn1c(=O)cc(SCC(=O)N2CCC3(CC2)OCCO3)c2ccccc21`, the EC50 [6] is reported as > 79.4 µM (not active), the IC50 [7] is reported as > 80 µM (inactive) and the EC50 [8] is reported as > 79.4 µM (not active). For the same compound, the EC50 [9] was > 79.4 µM (inactive).

In the case of `CC(C)Cn1c(N)c(C(=O)COC(=O)CC23CC4CC(CC(C4)C2)C3)c(=O)n(C)c1=O`, the AC50 [10] is reported as 1.7 µM (active), the IC50 (HEK293 [11]) is reported as 3.31 µM (active) and the IC50 [12] is reported as 5.92 µM (not active). For the same compound, the AC50 [13] was 1.51 µM (active), the AC50 [14] was 0.435 µM (active) and the EC50 (HEK293 [15]) was 3.06 µM (active). The IC50 (HEK293 [16]) was 2.31 µM (active) and the IC50 (HEK293 [17]) was 6.35 µM (active).

In the case of `O=C(CCNC(=O)c1ccc([N+](=O)[O-])cc1)Nc1cccc(S(=O)(=O)N2CCCCCC2)c1`, the AC50 (Escherichia coli) is reported as 57 µM (active).

For `Cc1cc(NC(=O)CSc2nc3ccsc3c(=O)n2CCCCC(=O)O)no1`, the AC50 (Cytochrome P450 3A4) was “inconclusive” and the AC50 (Cytochrome P450 2C19) was 3.98 µM (inconclusive).

In the case of `CO[C@@]12[C@@H]3N[C@@H]3CN1C1=C(C(=O)C(N)=C(C)C1=O)[C@@H]2COC(N)=O`, the AC50 (Escherichia coli) is reported as 0.496 µM (active).
